Among the data in patent publication US11072628B2, “Nucleoside analogues for the treatment of parasitic infections” (UNIVERSITEIT GENT, priority 2017, dated 2021) are EC50 and melting point values, retold here.

Structures are written as SMILES. Where two headings read alike, the source gives them in different places. Some results are limits rather than exact numbers.

Data set [1] relates to T. brucei Squib 427. Nature of the data set: In vitro drug susceptibility, T. brucei Squib 427 (resazurin). Type of data set: cell-based, Trypanosoma brucei brucei. Here is the method:
(§1) All trypanosome strains were cultured in the standard HMI-9 medium supplemented with 10% fetal bovine serum (FBS) at 37° C. in a 5% CO2 atmosphere.
On the technique in general: Resazurin is reduced to fluorescent resorufin, in cell work by metabolically active cells.

Data set [2] concerns T. b. rhodesiense STIB-900. Nature of the data set: In vitro drug susceptibility, T. b. rhodesiense STIB-900 (resazurin). The format is cell-based, Trypanosoma brucei rhodesiense. The method, then: as §1
In data set [3] the test system is MRC-5 fibroblasts. Nature of the data set: Cytotoxicity against MRC-5 fibroblasts. The note with it: read-out: MRC-5 EC50, cytotoxicity. Here is the method:
(§2) Cytotoxicity was assayed against MRC-5 fibroblasts. Results are depicted in Tables 4 and 5.

Data set [4] relates to T. cruzi Tulahuen CL2 β galactosidase strain. Nature of the data set: T. cruzi Tulahuen CL2 β galactosidase strain on MRC-5SV2 cells (CPRG). The format is cell-based, Trypanosoma cruzi. The method, then: All cultures and assays were conducted at 37° C./5% CO2. […] The results were expressed as % reduction in parasite burdens compared to control wells from which an EC50 was calculated.

Data set [5] relates to T. vaginalis trophozoites (metronidazole susceptible G3 strain). Nature of the data set: Trichomonas vaginalis in vitro assay. The format is cell-based. The conditions noted are these: average of 2-5 independent replicates. The method, then:
T. vaginalis trophozoites (metronidazole susceptible G3 strain) were grown in vitro in modified Diamond's media (MDM) with 10% heat inactivated horse serum (HIHS) acquired from Gibco Life Technologies. After medium preparation, the pH was adjusted to 6.3-6.4 employing 1.0 M aq. HCl. Parasites cultures were passaged every day by taking 1 mL of cell culture into a 25 mL bottle of fresh media to ensure the cells were kept at the appropriate concentration of ˜2×10^6 cells/mL. The culture flasks were filled completely and tightly capped to provide the cells with an anaerobic environment. The parasites were maintained in incubation at 37° C. When culturing in multiwell plates, the plates were sealed with Nescofilm® and inserted in BD GasPak EZ pouches (BD Diagnostics, UK) in order to create anaerobic conditions. Assays were performed with 5×10^4 trophozoites/well (100 μL) to which compound dilutions were added (100 μL). Outside wells of columns and rows were filled with 200 μL of sterile water. Plates were sealed with Nescofilm® and incubated under anaerobic conditions as described above. After 24 h, 30 μL of assay dye solution (resorufin) was added, and incubated for 1-2 h before being read using Fluostar Optima (BMG Labtech, UK) at an excitation wavelength of 544 nm and an emission wavelength of 620 nm.

Data set [6] in a line: Cytotoxicity against MRC-5 fibroblasts. The note with it: human, MRC-5 fibroblasts, cytotoxicity. Here is the method:
as §2

[7] abbreviates: Table 1, average of 2-4 independent determinations, read-out: T. brucei brucei EC50.
[8] abbreviates: Table 1, average of 2-4 independent determinations, read-out: T. brucei rhod. EC50.
Setting [9] is: Table 2, average of 2-3 independent replicates.
The mark [10] stands for this setting: Trypanosoma brucei, read-out: T. brucei brucei EC50, Table 1, average of 2-4 independent determinations.
Setting [11] is: Trypanosoma brucei, RHODESIENSE, read-out: T. brucei rhod. EC50.
[12] abbreviates: Trypanosoma cruzi, TULAHUEN, MRC-5 SV2, Table 2, average of 2-3 independent replicates.
The mark [13] stands for this setting: Trypanosoma brucei, read-out: T.b. brucei EC50, Table 4, average of 2-6 independent determinations.
[14] abbreviates: Trypanosoma brucei, RHODESIENSE, read-out: T.b. rhod. EC50.
Setting [15] is: Trypanosoma cruzi, TULAHUEN, MRC-5 SV2, Table 5, average of 2-4 independent replicates.

On to `Nc1ncnc2c1c(-c1ccc3ccccc3c1)cn2[C@@H]1O[C@H](CO)[C@@H](O)[C@H]1O` [FH8461, 4-amino-5-(2-naftyl)-N7-(β-D-ribofuranosyl)-pyrrolo[2,3-d]pyrimidine], for which the EC50 in data set [1] (Table 4, average of 2-6 independent determinations, read-out: T.b. brucei EC50) worked out at 7.83 µM; in data set [2] (Table 4, average of 2-6 independent determinations, read-out: T.b. rhod. EC50), 6.79 µM; in data set [3] (Table 4) it was 7.53 µM; in data set [3] (Table 5) it was 7.53 µM; in data set [4] (Table 5, average of 2-4 independent replicates) it was 2.48 µM; in data set [5] (Table 6), 0.58 µM.

Regarding `COc1ccc(-c2cn([C@@H]3O[C@H](CO)C[C@H]3O)c3ncnc(N)c23)cc1` [FH8494, 4-amino-5-(4-methoxyphenyl)-N7-(3′-deoxy-β-D-ribofuranosyl)-pyrrolo[2,3-d]pyrimidine], the concentration for a half-maximal effect (EC50) in data set [1] (setting [7]) amounted to 3.7 µM; in data set [2] (setting [8]), 1.2 µM; in data set [3] (Table 1), 24.3 µM; in data set [3] (Table 2), 24.3 µM; in data set [4] (setting [9]), 2.4 µM; in data set [5] (Table 3), 0.73 µM.

Regarding `Nc1ncnc2c1c(-c1ccc(Cl)c(Cl)c1)cn2[C@@H]1O[C@H](CO)C[C@H]1O` [FH8513], the EC50 in data set [1] (setting [10]) is 1.8 µM; in data set [2] (setting [11]), 1.5 µM; in data set [6] (MRC-5 EC50, Table 1) it was 13.6 µM; in data set [6] (MRC-5 EC50, Table 2) it was 13.6 µM; in data set [4] (setting [12]), 0.06 µM; in data set [5] (Trichomonas vaginalis, Table 3), 0.33 µM.

Regarding `Nc1ncnc2c1c(-c1ccc(C(F)(F)F)cc1)cn2[C@@H]1O[C@H](CO)C[C@H]1O` [FH9576, 4-amino-5-(4-trifluoromethylphenyl)-N7-(3′-deoxy-β-D-ribofuranosyl)-pyrrolo[2,3-d]pyrimidine], the EC50 turned out to be 19.5 µM in data set [1] (setting [10]); 6.6 µM in data set [2] (setting [11]); 40 µM in data set [6] (MRC-5 EC50, Table 1); 40 µM in data set [6] (MRC-5 EC50, Table 2); 0.53 µM in data set [4] (setting [12]); 0.26 µM in data set [5] (Trichomonas vaginalis, Table 3).

Consider `Nc1ncnc2c1c(-c1ccc(OC(F)(F)F)cc1)cn2[C@@H]1O[C@H](CO)C[C@H]1O` [FH9577, 4-amino-5-(4-trifluoromethoxyphenyl)-N7-(3′-deoxy-β-D-ribofuranosyl)-pyrrolo[2,3-d]pyrimidine], for which the half-maximal effective concentration (EC50) in data set [1] (setting [7]) was found to be 24.5 µM; in data set [2] (setting [8]) it was 9.8 µM; in data set [3] (Table 1), 40.4 µM; in data set [3] (Table 2), 40.4 µM; in data set [4] (setting [9]), 1.39 µM; in data set [5] (Table 3), 0.79 µM.

Turning to `Nc1ncnc2c1c(CCc1ccccc1)cn2[C@@H]1O[C@H](CO)C[C@H]1O` [FH10661, 4-amino-5-(phenylethyl)-N7-(3′-deoxy-β-D-ribfuranosyl)-pyrrolo[2,3-d]pyrimidine], the melting point was determined as 76 °C. For the same compound, in data set [1] (setting [10]), the half-maximal effective concentration (EC50) turned out to be 8.26 µM. Further, the EC50 in data set [2] (setting [11]) was determined as 0.67 µM. For the same compound, the EC50 in data set [6] (MRC-5 EC50, Table 1) is above 64 µM. Besides, the EC50 in data set [6] (MRC-5 EC50, Table 2) is above 64 µM. The compound further showed an EC50 in data set [4] (setting [12]) above 64 µM.

Regarding `Nc1ncnc2c1c(-c1ccc(Cl)cn1)cn2[C@@H]1O[C@H](CO)[C@@H](O)[C@H]1O` [MS1039, 4-amino-5-(5-chloro-pyrid-2-yl)-N7-(β-D-ribofuranosyl)-pyrrolo[2,3-d]pyrimidine], the EC50 is 8.97 µM in data set [1] (setting [13]); 4.6 µM in data set [2] (setting [14]); above 64 µM in data set [6] (MRC-5 EC50, Table 4); above 64 µM in data set [6] (MRC-5 EC50, Table 5); 2.39 µM in data set [4] (setting [15]); 0.86 µM in data set [5] (Trichomonas vaginalis, Table 6).

Consider `Cc1ncc([N+](=O)[O-])n1CCO` [Metronidazole, reference compound], for which, in data set [5] (Trichomonas vaginalis, Table 3), the EC50 worked out at 0.53 µM.

Take `Nc1ncnc2c1c(-c1ccccc1)cn2[C@@H]1O[C@H](CO)[C@@H](O)[C@H]1O` [TH1004, 4-amino-5-phenyl-N7-(β-D-ribofuranosyl)-pyrrolo[2,3-d]pyrimidine]: the concentration giving a half-maximal response (EC50) in data set [1] (setting [13]) was 32.3 µM; in data set [2] (setting [14]), 4.1 µM; in data set [6] (MRC-5 EC50, Table 4), 56.2 µM; in data set [6] (MRC-5 EC50, Table 5), 56.2 µM; in data set [4] (setting [15]), 3.44 µM; in data set [5] (Trichomonas vaginalis, Table 6) it was 0.43 µM.

In turn, `Cc1ccc(-c2cn([C@@H]3O[C@H](CO)[C@@H](O)[C@H]3O)c3ncnc(N)c23)cc1` [TH1011, 4-amino-5-(4-methylphenyl)-N7-(β-D-ribofuranosyl)-pyrrolo[2,3-d]pyrimidine] came in with a melting point of 165 °C. The EC50 in data set [1] (setting [13]) amounted to 29.1 µM. This compound also had an EC50 in data set [6] (MRC-5 EC50, Table 4) of 26.2 µM. The same compound showed a concentration giving a half-maximal response (EC50) in data set [6] (MRC-5 EC50, Table 5) of 26.2 µM. For the same compound, it took 1.5 µM to reach a half-maximal effect in data set [4] (setting [15]) (EC50). For the same compound, the EC50 in data set [5] (Trichomonas vaginalis, Table 6) turned out to be 0.06 µM.

A word on the EC50: it is the concentration at which the effect is half-maximal. A word on the melting point: it is the temperature, or range, at which the solid turns liquid.
